Reference: patent US10415054B2, “Designer circuit controlling diet-induced obesity” (ETH ZURICH, priority 2013, dated 2019)

Assays:
[1] = target: T1, lipid-sensing receptor (LSR; TtgR-PPARα) (UniProt Q07869+Q9AIU0); assay: Fatty acid/fibrate-controlled SEAP expression in pKR135/pMG10-transgenic HT-1080; type: cell-based, human; conditions: for sensitivity of LSR (SEAP expression): pKR135/pMG10-transgenic HT-1080, 48 h, FIG. 3d,e
T1 construct: TtgR (phloretin-responsive repressor of Pseudomonas putida DOT-T1E); expressed in transfected cells; host or cells: HT-1080 (A1, A5; in A5 microencapsulated and implanted into mice); several rodent, primate and human cell lines (A2)
T1 sequence (Q9AIU0+Q07869 with tags, fused parts or gaps): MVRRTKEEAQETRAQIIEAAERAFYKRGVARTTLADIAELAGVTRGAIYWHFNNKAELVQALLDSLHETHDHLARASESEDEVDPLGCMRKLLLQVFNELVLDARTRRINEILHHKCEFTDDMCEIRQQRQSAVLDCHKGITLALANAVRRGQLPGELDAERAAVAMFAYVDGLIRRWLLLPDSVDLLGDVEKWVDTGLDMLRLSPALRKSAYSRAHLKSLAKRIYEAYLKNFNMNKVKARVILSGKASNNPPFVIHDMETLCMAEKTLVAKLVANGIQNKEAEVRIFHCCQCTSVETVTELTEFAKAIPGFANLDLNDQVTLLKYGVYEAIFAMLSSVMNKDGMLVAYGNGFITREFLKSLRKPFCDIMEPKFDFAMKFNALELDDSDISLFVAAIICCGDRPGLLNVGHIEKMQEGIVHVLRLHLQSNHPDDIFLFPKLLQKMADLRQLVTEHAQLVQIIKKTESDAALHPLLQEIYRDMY
Protocol: Wild-type Chinese hamster ovary cells (CHO-K1, ATCC: CCL-61) were cultured in ChoMaster® HTS (Cell Culture Technologies GmbH, Gravesano, Switzerland) containing 1% penicillin/streptomycin. All cell types were cultivated at 37° C. in a humidified atmosphere containing 5% CO2. […] After transfection, all cells were cultivated in their specific media containing different inducer concentrations and reporter protein levels were profiled after 48 h unless stated otherwise. […]

[2] = target: T1, lipid-sensing receptor (LSR; TtgR-PPARα); assay: Linoleic acid-induced SEAP expression in different cell lines cotransfected with pKR135/pMG10; type: cell-based; conditions: several rodent, primate and human cell lines, 48 h, FIG. 2
Protocol: Linoleic acid-induced SEAP expression in different cell lines. Cells were cotransfected with the LSR-encoding expression vector (pKR135; PhCMV-LSR-pA) and the PTtgR1-driven SEAP expression plasmid (pMG10; […]), grown in the presence of different linoleic acid (LA) concentrations, and SEAP levels were profiled in the culture supernatant after 48 h.
(§1) Human embryonic kidney cells (HEK-293T, ATCC: CRL-11268), Baby hamster kidney cells (BHK-21, ATCC: CCL-10), African green monkey kidney cells (COS-7, ATCC: CRL-1651), human cervical adenocarcinoma cells (HeLa, ATCC: CCL-2), human fibrosarcoma cells (HT-1080, ATCC: CCL-121) and immortalized human mesenchymal stem cells (hMSC) (Simonsen, J. L. et al., Nat Biotechnol 20, 592-596 (2002)) were cultivated in Dulbecco's modified Eagle's medium (DMEM; Invitrogen, Basel, Switzerland) supplemented with 1% (v/v) penicillin/streptomycin solution (Sigma-Aldrich, Munich, Germany). […]
(§2) Production of the human placental secreted alkaline phosphatase (SEAP) in culture was quantified according to a p-nitrophenylphosphate-based time course of light absorbance (Schlatter S. et al., Gene 282, 19-31 (2002)). Serum levels of SEAP were quantified using a chemiluminescence-based assay (Roche Diagnostics GmbH, Mannheim, Germany).

TtgA1 (TtgR-VP16) = target: T2, TtgA1 (TtgR-VP16) (Pseudomonas putida, UniProt Q9AIU0); assay: Phloretin-responsive gene switch (pMG10/pMG11) in HT-1080 exposed to linoleic acid; type: cell-based; conditions: HT-1080 pMG10/pMG11, 48 h, FIG. 6
T2 construct: expressed in transfected cells; host or cells: HT-1080
Protocol: HT-1080 were cotransfected with the components encoding the phloretin-responsive gene switch (pMG10, (PTtgR1-SEAP-pA) and pMG11, (PSV40-TtgA1-pA)) and grown for 48 h in the presence of increasing linoleic acid (LA) concentrations before SEAP was profiled in the cell culture supernatant.
as §1, with “Germany). Wild-type Chinese hamster ovary cells (CHO-K1, ATCC: CCL-61) were cultured in ChoMaster® HTS (Cell Culture Technologies GmbH, Gravesano, Switzerland) containing 1% penicillin/streptomycin.” for “Germany).”
as §2

LSR sensor device = target: T3, LSR sensor device (UniProt Q07869+Q9AIU0); assay: Serum SEAP in wild type mice implanted with microencapsulated pKR135/pMG10-transgenic HT-1080; type: in vivo; conditions: wild type mice on standard diet, 48 h, FIG. 4a,b
T3 construct: TtgR (phloretin-responsive repressor of Pseudomonas putida DOT-T1E); expressed in transfected cells; host or cells: HT-1080 (A1, A5; in A5 microencapsulated and implanted into mice); several rodent, primate and human cell lines (A2)
T3 sequence (Q9AIU0+Q07869 with tags, fused parts or gaps): T1 sequence (Q9AIU0+Q07869 with tags, fused parts or gaps)
Source text: (a-d) Standard low fat-fed wild type mice were implanted with microencapsulated pKR135-/pMG10-transgenic HT-1080 (2×10^6 cells/mouse) and received different doses of linoleic acid (LA) and palmitic acid (PA) (fatty acids, FA) (a), rapeseed oil (RO) (b) or were put on standard low fat (LF, 5 kcal % fat), medium fat (MF, 10 kcal % fat) and high fat (HF, 60 kcal % fat) diets (D) (c, d). Resulting blood SEAP (bSEAP) levels (a, b, d) and blood fat levels (BF) represented by serum cholesterol (C) and phospholipid (PL) concentrations (c) were quantified after 48 h (a, b, d) or 72 h (c). Data are mean±SEM, statistics by two-tailed t test; n=8 mice. *P<0.05, **P<0.005, ***P<0.0001 vs. zero lipid doses (a,b) or LF mice (c,d).
as §2, with “Germany). […]” for “Germany).”

| SMILES | sensitivity of LSR (SEAP expression) [1] | further results |
| --- | --- | --- |
| Cc1cccc(Nc2cc(Cl)nc(SCC(=O)O)n2)c1C [WY-14643] | sensitive |  |
| CCCCC/C=C\C/C=C\C/C=C\C/C=C\CCCC(=O)O [arachidonic acid] | sensitive |  |
| Cc1ccc(C)c(OCCCC(C)(C)C(=O)O)c1 [gemfibrozil] | sensitive |  |
| CCCCCCCCCCCC(=O)O [lauric acid] | sensitive |  |
| CCCCC/C=C\C/C=C\CCCCCCCC(=O)O [linoleic acid] | sensitive | SEAP induction [2]: SEAP was exclusively induced; sensitivity of the phloretin-responsive control element (SEAP) (TtgA1 (TtgR-VP16)): Insensitivity; SEAP in serum (LSR sensor device): significant dose-dependent increase |
| CCCCCCCCCCCCCC(=O)O [myristic acid] | sensitive |  |
| CCCCCCCC/C=C\CCCCCCCC(=O)O [oleic acid] | sensitive |  |
| CCCCCCCCCCCCCCCC(=O)O [palmitic acid] | sensitive | SEAP in serum (LSR sensor device): significant dose-dependent increase |
| O=C(CCc1ccc(O)cc1)c1c(O)cc(O)cc1O [phloretin] |  | phloretin-triggered effect on fatty acid-induced transgene (SEAP) expression ([1]; HT-1080 induced by 100 μM linoleic acid, 48 h, FIG. 3c): shut down transgene expression |
| CCCCCCCCCCCCCCCCCC(=O)O [stearic acid] | sensitive |  |
